Results: publication PMC5651866, “Halogenated Chrysins Inhibit Dengue and Zika Virus Infectivity” (Scientific Reports, 2017)

Assays:
[1] = test system: DENV2; assay: Time-of-drug addition study (TOA) in DENV2 infected LLC/MK2 cells; format: cell-based, Dengue virus; conditions: 10 μM; for decrease of DENV2 plaque titer from DMSO-treated baseline: supernatants
Method: To access the stage of the viral life cycle affected by FV13, we performed a time-of-addition assay. Briefly, FV13 (10 μM) was added to DENV2 infected LLC/MK2 cells at various time points as described in Methods section. DMSO was added in parallel as a control treatment. Supernatants were collected for plaque titration and cell lysates were collected for RT-qPCR analysis. […] If the drug was added at 12 hpi or later, only 1-log decrease was observed (Fig. 4A,B). […] The first molecular target could interact with FV13 earlier than 2 hpi and its effect was still visible until 8–10 hpi. The other target could locate at late post-replication steps such as assembly, maturation, or release because a 1-log discrepancy between plaque and RT-qPCR titers indicated genome replication was unaffected. Further investigations will reveal insights into the actual target of this compound.
(§1) After supernatant collection, the remaining cells in experimental plates were extracted for viral RNAs using TRIzol reagent (Invitrogen, California, USA) according to the manufacturer’s protocol. The samples were loaded into the Direct-zol™ RNA MiniPrep (Zymo research, California, USA) and quantified by Nanodrop spectrophotometry (Eppendorf, New York, USA). The RT-qPCR was performed with a Step-OnePlus Real-Time PCR System (Applied Biosystems, California, USA.) with 1 × Power SYBRGreen PCR Master Mix, 400 nM each of capsid primers[40] or 250 nM of NS1 primers[41] and 0.1 µg of total RNA. The reactions were then cycled at 48 °C 30 min and 95 °C 10 min, followed by 45 cycles of 95 °C for 20 s (denaturation), 55 °C for 30 s (annealing), 72 °C for 30 s (extension). Each sample was analyzed in triplicated and results were confirmed by two independent experiments.
LLC/MK2 cells were seeded in 24-well plate and incubated as previously described. Cells were then infected with DENV2 (M.O.I. of 0.1). FV13 (10 µM) was added at various time points, early time points (−1, 0, 2, 4, 6, 8, 10, and 12 hpi) and late time points (12, 14, 16, 20, and 24 hpi) and the plates were incubated for 5 days. Supernatants were collected to determine the viral titer by plaque titration assay and the cells were collected to determine viral RNA content by RT-qPCR. Results were confirmed by three independent experiments in which each time point was tested in duplicate.

[2] = test system: BHK-21/DENV2 replicon cells; assay: Replicon inhibition assay, RT-qPCR of replicon RNA; format: cell-based; conditions: Dengue virus, DENV2, BHK-21, 72 h, read-out: inhibition of DENV2 replicon replication
Method: Next, we studied FV13 inhibition in a DENV2 replicon replication system to investigate whether translation and replication could be implicated as drug targets. BHK-21/DENV2 replicon cells[28] were treated with 5 and 10 µM FV13 and incubated for 72 h before measuring replication efficiency by quantifying replicon RNA. Ribavirin, a known dengue virus replication inhibitor[29], was used as a positive control.
as §1
BHK-21 cells expressing a DENV2 replicon (BHK-21/DENV2) were maintained in minimal essential medium (MEM) supplemented with 10% fetal bovine serum (FBS), and 0.3 mg/ml G418 (Bio Basic Canada, Ontario, Canada). The protocol was adapted from Boonyasuppayakorn et al., 2014 [28]. Briefly, cells (5 × 10^4/well) were seeded into 24-well plates and were incubated for 1 day at 37 °C in a humidified CO2 chamber followed by addition of the compounds in 1% DMSO at final concentrations of 5 µM and 10 µM. DMSO (1%) alone was used as the no-inhibitor control (0% inhibition) and the reference compound was ribavirin (TargetMol, Massachusetts, USA) at a final concentration of 5 µM or 10 µM. Cells were incubated at 37 °C for 72 h and lysed to quantify DENV2 replicons by RT-qPCR. Data were reported as percent inhibition compared with ribavirin, as a reference compound and DMSO, 0% inhibition. Results were confirmed by three independent experiments.

[3] = test system: DENV3 (16562); assay: Antiviral efficacy (EC50) in virus infected LLC/MK2 cells, plaque assay; format: cell-based, Dengue virus
Method: Compound at various concentrations were added to virus infected LLC/MK2 cells and viral titers were accessed by plaque titration of supernatants as previously described.
LLC/MK2 cells were seeded at 5 × 10^4 cells into each well of 24-well plate and incubated overnight at 37 °C under 5% CO2. Cells were infected with DENV2 at the multiplicity of infection (M.O.I.) of 0.1, unless indicated otherwise, for 1 h with gentle rocking every 15 min. Cells were washed with phosphate buffer saline (PBS) and incubated with 1 ml of MEM medium supplemented with 1% FBS as previously described. The compounds were prepared in dimethylsulfoxide (DMSO) at the indicated concentrations before addition to viral infected cells. Supernatants were collected after 5 day incubation and analyzed by plaque titration[9].
Compounds were prepared in DMSO at 8–12 different concentrations and added to virus infected cells as previously described. Supernatants were collected and the EC50 values were calculated from nonlinear regression analysis.

[4] = test system: DENV2; assay: Attachment inhibition study, DENV2 with LLC/MK2 cells; format: cell-based, Dengue virus; conditions: 10 µM
Method: We further explored whether the compound would block the viral infectivity by neutralization. We set up the attachment inhibition assay by incubating DENV2 with LLC/MK2 cells at 4 °C for 1 h and FV13 was added before adsorption (pre-attachment), simultaneous with adsorption (co-attachment), and after adsorption (post-attachment) (Fig. 5A). DMSO was used as a mock treatment and added in parallel to FV13 to the experiment. Cells were incubated until cytopathic effects appeared under microscope (Fig. 5B). Supernatants and cells were then analyzed by plaque titration (Fig. 5C) and RT-qPCR (Fig. 5D), respectively. […] Therefore, the major targets of FV13 inhibition appear to function after attachment, possibly at the fusion or translation steps. […] (Supplementary 1). Therefore, fusion was unlikely the major target of FV13. We concluded that one of the major targets of FV13 functions early after infection and attachment and fusion are not critically affected. Flavivirus translation initiates within 1 to 5 hpi[26].
as §1
The attachment assay was adapted from Lani et al., 2016 and Jin et al., 2015 [42],[43]. Briefly, LLC/MK2 cells were seeded in 24-well plates and incubated as previously described. […]

O=c1cc(-c2ccccc2)oc2c(Br)c(O)c(Br)c(O)c12 [FV13, 6,8-dibromo-5,7-dihydroxyflavone]
decrease of DENV2 plaque titer from DMSO-treated baseline ([1]; drug added at 12 hpi or later): 1 log | decrease of DENV2 plaque titer from DMSO-treated baseline ([1]; drug added between 2–10 hpi): 2 log | intracellular viral RNA versus DMSO-treated samples ([1]; drug addition at 12–24 hpi, RT-qPCR, in words): no titer difference | decrease of intracellular viral RNA ([1]; drug addition between 2–8 hpi, RT-qPCR): 1 log | inhibition at 5 µM [2]: 83.4 ± 2.04% | inhibition at 10 µM [2]: 82.7 ± 4.01% | S.I. Selectivity index (CC50/EC50) ([3]; DENV3 (16562), CC50 in LLC/MK2): 19.22 | EC50 ([3]; Dengue virus, DENV3, LLC-MK2): 2320 ± 1460 nM | viral RNA reduction ([4]; post-attachment, intracellular RNA, RT-qPCR): 64.07 ± 3.37% | plaque titer reduction ([4]; post-attachment, supernatants, 2 days): 40.59 ± 2.83% | interference with pre- or co-attachment steps ([4]; pre-attachment and co-attachment, in words): did not interfere with either pre- or co-attachment steps
